# Results from US11529343B2, “Compositions and methods for identifying and treating dystonia disorders” (DUKE UNIVERSITY, priority 2015, dated 2022).
# Assays:
# ATF4 = experiment: Western blot, ATF4 abundance in EGFP-ΔE Torsin1a expression assay cell line; format: cell-based, human; conditions: increasing concentration
# Experimental: (§1) Cells were harvested in RIPA buffer [150 mM NaCl/50 mM NaH2PO4/2 mM EDTA/1% Triton X-100/0.5% SDS/0.5% deoxycholic acid/50 mM NaF/10 mM Na4P2O7/1 mM Na3VO4/1× phosphatase inhibitor cocktail (Sigma #P5726)/1× cOmplete Mini EDTA-free protease inhibitor cocktail (Roche #04693159001)]. Total protein concentrations were assessed by BCA assay (Thermo Fisher Scientific #23225). Proteins were resolved on 4-15% TGX gels (Bio-Rad #5671085), transferred to nitrocellulose membrane, blocked in TBS-T+5% non-fat dry milk, and probed as indicated. (Primary antibodies employed in the examples of the disclosure are presented in Table 4.) ATF4 expression was normalized to […] expression. N=3 independent control cells lines and 4 independent DYT1 cell lines, 3 replicates each.
# (§2) Western blot analyses were conducted to determine the effect of Lopinavir on ATF4, CreP, pEIF2-alpha, and β-actin abundance in EGFP-ΔE Torsin1a expression assay cell lines. […] This down regulation of CreP is in keeping with the HIV protease inhibitor mediated CreP regulation. (See De Gassart et al. PNAS 2015.)
# [1] = tested on: Flp-In T-REx 293 cells inducibly expressing delta-E Torsin1a; experiment: Cytotoxicity (cell count, cellular morphology) in the Torsin1a assay cell line; format: cell-based, human
# Experimental: (§3) In order to test this model directly, the delta-E Torsin1a cell line was treated with compounds targeting the eIF2-alpha signaling pathway (FIG. 2). […] The following day, serial drug dilutions were prepared at 2× final concentration in assay media containing 10 μg/mL tetracycline and 30 μL of the drug/tetracycline mixture was added to the appropriate wells, while control wells received 30 μL of assay media alone or assay media+10 μg/mL tetracycline (final tetracycline concentration for all wells except negative controls: 5 μg/mL). Cells were then incubated at 37° C./5% CO^2 for 48 hours and fixed, permeabilized, Hoechst stained, and imaged as described above. The range of the Torsin1a localization effect was normalized to the percentage of cells with puncta in vehicle-treated delta-E cell line as the maximum and that in WT cell line as the minimum (FIG. 2, panels c-h). Cell count and EGFP-Torsin1a expression were normalized to their respective values in the vehicle-treated delta-E cell line as the maximum. All dose response data are the average of 4 independent experiments per dose. Untreated control data used for normalization are the average of 24 independent experiments.
# Efficacy is calculated as the magnitude of the pathology correction relative to the mutant Torsin1a pathology. For example an efficacy=−100% would be equivalent to the WT TorsinA phenotype, and 0% would be equivalent to the Mutant TorsinA phenotype. CCv2 refers to the dose response Curve Class annotation, and AC refers to Active Concentration.
# CreP = experiment: Western blot, CreP abundance in EGFP-ΔE Torsin1a expression assay cell line; format: cell-based, human; conditions: increasing concentration
# Experimental: as §1, §2
# pEIF2-alpha = experiment: Western blot, phosphorylation of EIF2-alpha in EGFP-ΔE Torsin1a expression assay cell line; format: cell-based, human; conditions: increasing concentration
# Experimental: as §1, §2
# luciferase secretion = experiment: C.Luc. Secretion Assay; format: cell-based; conditions: orthogonal assays
# Experimental: We tested each shRNA for its ability to rescue a previously described defect in luciferase secretion. Chen, P. et al. (2010) Hum. Mol. Genet. 19, 3502-15; Cao, S. et al. (2010) Dis. Model Mech. 3, 386-96; Barrows, N. J., et al., (2010) J. Biomol. Screen. 15, 735-47.) DYT1 patient data were obtained from 4 independent patient-derived lines and WT data (black bar) from 3 normal healthy control lines. Each line was tested in 5 independent experiments that included 4 technical replicates each (with the exception of SCD data from 3 independent experiments).
# (Cao, S. et al. (2010) Dis. Model. Mech. 3, 386-96.) Subsequent testing of additional HIV protease inhibitors supported the activity of this class of compounds and generated favorable structure-activity relationship (SAR) data from which to design improved compounds (Tables 5 and 6). The results with a subset of compounds were also observed in a Luciferase secretion assay (Tables 5 and 6).
# [2] = tested on: delta-E Torsin1a localization; experiment: Delta-E Torsin1a mislocalization assay (% cells with EGFP puncta, high-content imaging); format: cell-based, human
# Experimental: To limit variation in expression levels associated with random integration or transient expression, single copies of either WT or delta-E human TOR1A cDNAs with N-terminal EGFP fusions were inserted at the FRT site in Flp-In™ T-Rex™ 293 cells (Thermo Fisher Scientific #R780-07) via flippase recombinase-mediated cassette exchange according to the manufacturer's recommended protocols.
# The cells were maintained at 37° C./5% CO2. All experiments were performed on cells with fewer than 5 passages.
# Torsin1a expression was also controlled by tetracycline induction to avoid selective pressure modifying the cellular phenotypes. […] The mutant phenotype was measured as the percentage of cells with one or more EGFP puncta using automated high-content imaging analysis (see infra).
# The image analysis algorithm was developed using the Cellomics ArrayScan V CompartmentAnalysisV2 protocol. Hoechst's nuclear staining (Ch1: excitation 350 nm; emission 461 nm) was used for focusing and for cell identification by nuclear size, shape, and intensity. […] Detected cells were gated according to nuclear area, length-to-width ratio, and perimeter-to-area ratio. For the purpose of analysis, cell bodies were defined by a radius of 10 μm from the outer edge of the defined nucleus. Overlapping cells were automatically segmented according to the Cellomics ArrayScanV CompartmentAnalysisV2 object segmentation feature. EGFP fluorescence (Ch2: excitation 488 nm; emission 509 nm) was used for puncta detection. […] Torsin a puncta were identified using the spot detection feature of the Compartmental AnalysisV2 protocol. The percentage of cells containing one or more puncta was used as the primary metric in this assay.
# as §3
compound,measurement,setting,value
Cc1cccc(C)c1OCC(=O)N[C@@H](Cc1ccccc1)[C@@H](O)C[C@H](Cc1ccccc1)NC(=O)[C@H](C(C)C)N1CCCNC1=O [Lopinavir],ATF4 abundance,ATF4,increases phosphorylation of EIF2-alpha and ATF4 abundance in a dose dependent manner
same,Cytotox Efficacy,[1],−69.87%
same,Cytotox Max Resp,[1],−55.19%
same,Cytotox CC-v2 (dose response Curve Class),[1]; curve class per Inglese et al. 2006,−3
same,steady state levels of CreP,CreP,down-regulation of steady state levels
same,steady state levels of CreP,CreP; listed as lopinavir,decreases CReP abundance
same,phosphorylation of EIF2-alpha,pEIF2-alpha,increases phosphorylation of EIF2-alpha
same,"effect on secretory deficits, in words",luciferase secretion,corrected secretory deficits
same,Emax,"[2]; Homo sapiens, delta-E Torsin1a assay cell line, read-out: ΔE TorsinA Mislocalization Assay Localization Max Efficacy",70%
same,"effect on delta-E Torsin1a localization (cells with puncta), in words","[2]; dose response, delta-E cell line",corrected TorsinA localization in a dose-dependent fashion
